Measurements as given in ChEMBL document CHEMBL5724696, “Autophagy assay results for EUbOPEN Chemogenomics Library” (2024).

Key:
Assay type in all cases: functional, Homo sapiens
U2OS [1] = assay: (§1) Here: values are normalized to the negative (DMSO; defined as 0% autophagy induction) and positive (250nM Torin1; mTOR inhibitor; defined as maximal inducer of autophagy = 100%) control compounds and represented as % of autophagy induction. […] The impact of autophagy induction on cells is complex and depends on the affected target. As such, the magnitude of a phenotype may not be equally mirrored in the %-value of autophagy induction and vice versa. The dynamics of the induction may indicate the mode of activation: e.g. activation via phosphorylation or a signaling cascade may occur fast, while activation via transcription factors may take considerably longer. […] Of note, treatment concentrations may be sub-optimal for specific compounds, leading to false negative annotations.; settings: Culturing Media DMEM, 1 % Penicillin/Streptomycin, 10% Fetal bovin serum Add-On: No, Screening Media Control DMEM, Screening Media Samples DMEM
TERT-RPE1 = assay: as §1; settings: Culturing Media DMEM/F12 (1:1), 1 % Penicillin/Streptomycin, 10% Fetal bovin serum Add-On: No, Screening Media Control DMEM/F12 (1:1), Screening Media Samples DMEM/F12 (1:1)
U2OS [2] = assay: as §1; settings: Culturing Media DMEM, 1 % Penicillin/Streptomycin, 10% Fetal bovin serum Add-On: No, Screening Media Control DMEM, Screening Media Samples DMEM; remark: listed apart in the source
[3] = Compound Concentration 0.5 uM, Timepoint 12 hours
[4] = Compound Concentration 0.5 uM, Timepoint 24 hours
[5] = Compound Concentration 0.5 uM, Timepoint 36 hours
[6] = Compound Concentration 0.5 uM, Timepoint 60 hours
[7] = Compound Concentration 2 uM, Timepoint 12 hours
[8] = Compound Concentration 2 uM, Timepoint 24 hours
[9] = Compound Concentration 2 uM, Timepoint 36 hours
[10] = Compound Concentration 2 uM, Timepoint 60 hours
[11] = Compound Concentration 10 uM, Timepoint 12 hours
[12] = Compound Concentration 10 uM, Timepoint 24 hours
[13] = Compound Concentration 10 uM, Timepoint 36 hours
[14] = Compound Concentration 10 uM, Timepoint 60 hours

Question: Which autophagy induction (U2OS [1]; [3]) does the source give for `C[C@H](Cc1cc2c(c(C(N)=O)c1)N(CCCO)CC2)NCCOc1ccccc1OCC(F)(F)F` [SILODOSIN] here?
Answer: -11.9601%

Question: What about the autophagy induction (U2OS [1]; [4]) of the same molecule?
Answer: -4.037%

Question: And the autophagy induction (U2OS [1]; [5])?
Answer: -2.198%

Question: And the autophagy induction (U2OS [1]; [6])?
Answer: -1.72%

Question: What about the autophagy induction (U2OS [1]; [7]) of the same molecule?
Answer: -7.096%

Question: And the autophagy induction (U2OS [1]; [8])?
Answer: -4.088%

Question: What about the autophagy induction (U2OS [1]; [9]) of the same molecule?
Answer: -2.301%

Question: What about the autophagy induction (U2OS [1]; [10]) of the same molecule?
Answer: -1.816%

Question: And the autophagy induction (U2OS [1]; [11])?
Answer: 0.9061%

Question: And the autophagy induction (U2OS [1]; [12])?
Answer: 0.8821%

Question: What about the autophagy induction (U2OS [1]; [13]) of the same molecule?
Answer: -0.4631%

Question: What about the autophagy induction (U2OS [1]; [14]) of the same molecule?
Answer: -2.909%

Question: And the autophagy induction (TERT-RPE1; [3])?
Answer: -3.093%

Question: And the autophagy induction (TERT-RPE1; [4])?
Answer: -6.268%

Question: And the autophagy induction (TERT-RPE1; [5])?
Answer: -8.97%

Question: And the autophagy induction (TERT-RPE1; [6])?
Answer: -13.239%

Question: What about the autophagy induction (TERT-RPE1; [7]) of the same molecule?
Answer: -3.63%

Question: What about the autophagy induction (TERT-RPE1; [8]) of the same molecule?
Answer: -5.97%

Question: And the autophagy induction (TERT-RPE1; [9])?
Answer: -7.85%

Question: What about the autophagy induction (TERT-RPE1; [10]) of the same molecule?
Answer: -11.8179%

Question: And the autophagy induction (TERT-RPE1; [11])?
Answer: -0.1283%

Question: And the autophagy induction (TERT-RPE1; [12])?
Answer: -0.9694%

Question: And the autophagy induction (TERT-RPE1; [13])?
Answer: 1.604%

Question: What about the autophagy induction (TERT-RPE1; [14]) of the same molecule?
Answer: -1.313%

Question: And the autophagy induction (U2OS [2]; [3])?
Answer: 8.749%

Question: And the autophagy induction (U2OS [2]; [4])?
Answer: -4.272%

Question: What about the autophagy induction (U2OS [2]; [5]) of the same molecule?
Answer: -5.327%

Question: What about the autophagy induction (U2OS [2]; [6]) of the same molecule?
Answer: -13.2389%

Question: What about the autophagy induction (U2OS [2]; [7]) of the same molecule?
Answer: -4.216%

Question: And the autophagy induction (U2OS [2]; [8])?
Answer: 0.5128%

Question: And the autophagy induction (U2OS [2]; [9])?
Answer: -1.271%

Question: And the autophagy induction (U2OS [2]; [10])?
Answer: -7.276%

Question: And the autophagy induction (U2OS [2]; [11])?
Answer: 1.6%

Question: And the autophagy induction (U2OS [2]; [12])?
Answer: 6.633%

Question: And the autophagy induction (U2OS [2]; [13])?
Answer: 3.208%

Question: And the autophagy induction (U2OS [2]; [14])?
Answer: 0.1621%
